Assay [1] deals with PDX1 and insulin protein expression in H1 cells. Nature of the assay: Flow cytometry of PDX1 and insulin protein expression at end of Stage 4. The conditions noted are these: for PDX1 and insulin double positive cells: loss of both nicotinamide and Exendin-4 from Stage 4 medium. The assay is classed as cell-based, human. The text has this: To quantify insulin and PDX1 protein expression we optimized a flow cytometry assay. […] The INS-1 cell line is an immortalized pancreatic beta cell line that expresses both PDX1 and insulin. On the bottom left, is our negative control, unstained H1 cells differentiated for 18 days. On the right, is H1 cells differentiated by the current protocol through day 18 stained with Insulin-PB and PDX1-AF488. […] Only 8-11% of the cells are PDX1 and insulin double positive.
To examine protein expression we collected cells at the end of Stage 4 and examined them by flow cytometry.
Thus, the effect of Noggin is context dependent and synergistic with nicotinamide and Exendin-4.
(In general: In flow cytometry, cells or beads pass a laser one at a time.)

Assay [2] concerns PDX1, NKX6.1, Neurogenin 3 and insulin gene expression. Description: QPCR gene expression of endoderm and pancreatic markers in differentiated cells. The assay is classed as cell-based, human. The conditions noted are these: presence or absence of nicotinamide at Stage 3. As to the method:
QPCR was performed at the end of Stage 4 ([…] Day 18) to examine gene expression of PDX1, a marker of pancreatic epithelium and progenitor cells, insulin, a marker of beta cells, and Sox9 which is expressed in the developing pancreatic epithelium. The gene expression is compared to undifferentiated cells collected at Day 0 and β-Actin is the internal control. […] Human Fetal Pancreas (HFP), gestation 14-20 weeks, is represented as a positive control.
In FIG. 19, the gene expression is compared to undifferentiated cells collected at Day 0 and B-Actin is the internal control. On the y axis is delta CT (instead of fold change), thus, the lower the value the greater the gene expression.
First, alterations at Stage 3 and 4 altered gene expression minimally. […] On the y axis is delta CT (instead of fold change), thus, the lower the value the greater the gene expression. […] In contrast the addition of Noggin at Stage 4, decreased PDX1 and NKX6.1 gene expression and increased Neurogenin 3 expression. There was no difference in insulin gene expression following the addition of Noggin to Stage 4.

Setting [3] is: addition of nicotinamide at Stage 3, cells at end of Stage 4.

Three compounds from patent US9540613B2, “Methods for producing insulin-secreting beta cells from human pluripotent stem cells” (Wisconsin Alumni Research Foundation, priority 2013, dated 2017) can be followed below.

For `NC(=O)c1cccnc1` [nicotinamide], in assay [1] (setting [3]), the PDX1 protein expression result is “decreased”; the “double positive PDX and insulin positive cells” value is reported as “little difference”; the insulin protein expression result is recorded as “increased”. Moreover, the “PDX1 and insulin double positive cells” value in assay [1] was “increases PDX1 and insulin double positive cells”. In addition, the protein expression entry in assay [1] (loss of nicotinamide from Stage 4 medium) is recorded as “little to no loss”. Besides, in assay [2], the “gene expression (delta CT)” value is reported as “did not alter gene expression”.

Regarding Exendin-4: a long-acting GLP-1 agonist, the “protein expression of either PDX1 or insulin” value in assay [1] (loss of Exendin-4 from Stage 4 medium) is “little to no difference”. Besides, the “PDX1 and insulin double positive cells” value in assay [1] was “increases PDX1 and insulin double positive cells”.

FGF2: Basic fibroblast growth factor: the insulin protein expression result in assay [1] (FGF2 instead of FGF7 at Stage 2) was “less insulin protein expression”.
